Converted amounts (≈) assume the structure as drawn. The source made the active and inactive calls. No cut-off for these calls is given here.
Assays:
Cyberlindnera jadinii = test: Antifungal activity against Candida utilis ATCC9950 assessed as growth inhibition incubated at 35 degC for 24 hrs by micro broth dilution method; type: functional; settings: Williopsis jadinii, ATCC9950, 24 h
Aspergillus flavus = test: Antifungal activity against Aspergillus flavus ATCC204304 assessed as growth inhibition incubated at 35 degC for 24 hrs by micro broth dilution method; type: functional; settings: ATCC204304, 24 h
Saccharomyces cerevisiae = test: Antifungal activity against Saccharomyces cerevisiae ATCC9763 assessed as growth inhibition incubated at 35 degC for 24 hrs by micro broth dilution method; type: functional; settings: ATCC9763, 24 h
Candida albicans = test: Antifungal activity against Candida albicans ATCC10231 assessed as growth inhibition incubated at 35 degC for 24 hrs by micro broth dilution method; type: functional; settings: ATCC10231, 24 h
[1] = Antifungal activity against Candida mycoderma ATCC9888 assessed as growth inhibition incubated at 35 degC for 24 hrs by micro broth dilution method; type: functional; settings: Kregervanrija fluxuum
Micrococcus luteus = test: Antibacterial activity against Micrococcus luteus ATCC4698 assessed as growth inhibition incubated at 37 degC for 24 hrs by micro broth dilution method; type: functional; settings: ATCC4698, 24 h
Staphylococcus aureus [2] = test: Antibacterial activity against methicillin resistant Staphylococcus aureus N315 assessed as growth inhibition incubated at 37 degC for 24 hrs by micro broth dilution method; type: functional; settings: N315, 24 h
Staphylococcus aureus [3] = test: Antibacterial activity against Staphylococcus aureus ATCC25923 assessed as growth inhibition incubated at 37 degC for 24 hrs by micro broth dilution method; type: functional; settings: ATCC25923, 24 h
Bacillus subtilis = test: Antibacterial activity against Bacillus subtilis ATCC6633 assessed as growth inhibition incubated at 37 degC for 24 hrs by micro broth dilution method; type: functional; settings: ATCC6633, 24 h
Pseudomonas aeruginosa [4] = test: Antibacterial activity against Pseudomonas aeruginosa ATCC27853 assessed as growth inhibition incubated at 37 degC for 24 hrs by micro broth dilution method; type: functional; settings: ATCC27853, 24 h
Escherichia coli = test: Antibacterial activity against Escherichia coli JM109 assessed as growth inhibition incubated at 37 degC for 24 hrs by micro broth dilution method; type: functional; settings: JM109, 24 h
[5] = Antibacterial activity against Eberthella typhosa ATCC14028 assessed as growth inhibition incubated at 37 degC for 24 hrs by micro broth dilution method; type: functional; settings: ATCC14028, 24 h
[6] = Antibacterial activity against Bacillus proteus ATCC13315 assessed as growth inhibition incubated at 37 degC for 24 hrs by micro broth dilution method; type: functional; settings: ATCC13315, 24 h
Pseudomonas aeruginosa [7] = test: Potency index, ratio of chloramphenicol MIC to compound MIC for Pseudomonas aeruginosa ATCC27853; type: functional
Pseudomonas aeruginosa [8] = test: Potency index, ratio of clinafloxacin MIC to compound MIC for Pseudomonas aeruginosa ATCC27853; type: functional
Staphylococcus aureus [9] = test: Binding affinity to methicillin-resistant Staphylococcus aureus DNA assessed as induction of DNA intercalation by UV-visible spectroscopy
Staphylococcus aureus [10] = test: Binding affinity to methicillin-resistant Staphylococcus aureus DNA assessed as induction of DNA intercalation in presence of potassium iodide by fluorescence spectroscopy based Stern-Volmer plot
[11] = Binding affinity to Cu2+ ion assessed as 1:1 compound-Cu2+ complex formation by fluorescence spectroscopy
Staphylococcus aureus [12] = test: Binding affinity to methicillin-resistant Staphylococcus aureus DNA assessed as induction of DNA intercalation by measuring as 1:1 compound-DNA complex formation in presence of Cu2+ ions by fluorescence spectroscopy

Compound	MIC80 (Cyberlindnera jadinii)	MIC80 (Aspergillus flavus)	MIC80 (Saccharomyces cerevisiae)	MIC80 (Candida albicans)	MIC80 [1]	MIC (Micrococcus luteus)	MIC (Staphylococcus aureus [2])	MIC (Staphylococcus aureus [3])	MIC (Bacillus subtilis)	MIC (Pseudomonas aeruginosa [4])	MIC (Escherichia coli)	MIC [5]	MIC [6]	Ratio (Pseudomonas aeruginosa [7])	Ratio (Pseudomonas aeruginosa [8])	Activity (Staphylococcus aureus [9])	Activity (Staphylococcus aureus [10])	Activity [11]	Activity (Staphylococcus aureus [12])
CCn1cc(C(=O)O)c(=O)c2cc(F)c(N3CCN(CC4CO4)CC3)cc21 (stereo not drawn)	8 µg/mL (≈ 21.3 µM)	1 µg/mL (≈ 2.66 µM)	1 µg/mL (≈ 2.66 µM)	4 µg/mL (≈ 10.7 µM)	1 µg/mL (≈ 2.66 µM)	8 µg/mL (≈ 21.3 µM)	2 µg/mL (≈ 5.33 µM)	8 µg/mL (≈ 21.3 µM)	64 µg/mL (≈ 170 µM)	16 µg/mL (≈ 42.6 µM)	2 µg/mL (≈ 5.33 µM)	16 µg/mL (≈ 42.6 µM)	4 µg/mL (≈ 10.7 µM)	–	–	–	–	–	–
Cn1ccnc1SCC(O)CNC1CCN(c2c(F)cc3c(=O)c(C(=O)O)cn(C4CC4)c3c2Cl)C1 (stereo not drawn)	32 µg/mL (≈ 59.7 µM)	32 µg/mL (≈ 59.7 µM)	16 µg/mL (≈ 29.8 µM)	0.5 µg/mL (≈ 0.933 µM)	1 µg/mL (≈ 1.87 µM)	0.5 µg/mL (≈ 0.933 µM)	0.25 µg/mL (≈ 0.466 µM)	0.5 µg/mL (≈ 0.933 µM)	0.5 µg/mL (≈ 0.933 µM)	0.25 µg/mL (≈ 0.466 µM)	1 µg/mL (≈ 1.87 µM)	0.5 µg/mL (≈ 0.933 µM)	0.5 µg/mL (≈ 0.933 µM)	64	4	Dose-dependent effect	Active	Active	Active
O=C(O)c1cn(C2CC2)c2c(Cl)c(N3CCC(NCC(O)Cn4cnc(S)n4)C3)c(F)cc2c1=O (stereo not drawn)	4 µg/mL (≈ 7.65 µM)	8 µg/mL (≈ 15.3 µM)	8 µg/mL (≈ 15.3 µM)	2 µg/mL (≈ 3.82 µM)	8 µg/mL (≈ 15.3 µM)	2 µg/mL (≈ 3.82 µM)	4 µg/mL (≈ 7.65 µM)	0.5 µg/mL (≈ 0.956 µM)	0.5 µg/mL (≈ 0.956 µM)	4 µg/mL (≈ 7.65 µM)	1 µg/mL (≈ 1.91 µM)	0.5 µg/mL (≈ 0.956 µM)	1 µg/mL (≈ 1.91 µM)	–	–	–	–	–	–
CCn1cc(C(=O)O)c(=O)c2cc(F)c(N3CCN(CC(O)CSc4ncn(Cc5ccc(Cl)cc5Cl)n4)CC3)cc21 (stereo not drawn)	64 µg/mL (≈ 101 µM)	4 µg/mL (≈ 6.29 µM)	16 µg/mL (≈ 25.2 µM)	64 µg/mL (≈ 101 µM)	64 µg/mL (≈ 101 µM)	64 µg/mL (≈ 101 µM)	2 µg/mL (≈ 3.15 µM)	2 µg/mL (≈ 3.15 µM)	64 µg/mL (≈ 101 µM)	16 µg/mL (≈ 25.2 µM)	8 µg/mL (≈ 12.6 µM)	32 µg/mL (≈ 50.4 µM)	4 µg/mL (≈ 6.29 µM)	–	–	–	–	–	–

Reference: ChEMBL document CHEMBL3739277, “Design, synthesis, and antibacterial evaluation of novel azolylthioether quinolones as MRSA DNA intercalators” (2015)
